Patent US12358875B2, “N-(phenyl)-indole-3-sulfonamide derivatives and related compounds as GPR17 modulators for treating CNS disorders such as multiple sclerosis” (UCB Pharma GMBH, priority 2019, dated 2025)

molecular target: GPR17 (Homo sapiens, UniProt Q13304); test: cAMP accumulation functional assay (HTRF), Schild analysis against MDL29,951 in CHO hGPR17; type: cell-based; set-up: host or cells: Flp-In T-REx CHO; details: CHO hGPR17, Schild analysis vs MDL29,951, 5 μM forskolin; read-out: cAMP assay pA2 (converted)
Method: Flp-In T-REx CHO cells stably expressing human GPR17 receptor (CHO hGPR17) from Evi Kostenis' lab (Bonn University, Germany) were cultured at 37° C. in a humidified atmosphere of 5% CO2. Cells were grown in DMEM with Nutrient Mixture F-12 supplemented with hygromycin B (500 μg/ml) and blasticidin (30 μg/ml). Expression from the Flp-In locus was induced by treatment with doxycycline (1 μg/ml) for 16-20 h prior assays.
GPR17 activation can also recruit Gi-type G-protein signaling, resulting in a decrease of intracellular cyclic adenosine monophosphate (cAMP). Intracellular cAMP changes can be measured using the HTRF cAMP dynamic assay kit from CisBio (Codolet, France). Using homogenous time-resolved fluorescence technology (HTRF), the assay is based on competition between native cAMP produced by cells and cAMP labelled with the dye d2. The tracer binding was determined by an anti-cAMP antibody labeled with cryptate.
CHO hGPR17 were detached with PBS containing EDTA and dispatched in black 384-well plates with 5,000 cells per well. Cells were first incubated for 30 minutes at room temperature in HBSS Hepes (pH 7.4) containing vehicle or varying concentrations of test GPR17 antagonist/inverse agonist compounds. Then, a dose response curve of MDL29,951 GPR17 agonist (typically from 10^−5M to 10^−10M) was added on vehicle and on each test GPR17 antagonist/inverse agonist compound concentration in a final volume of 20 μL HBSS Hepes buffer (pH 7.4) containing 1% DMSO, 5 μM forskolin and 0.1 mM IBMX. After 60 minutes incubation at room temperature, the reaction is terminated and the cells lysed by adding the d2 detection reagent and the cryptate reagent in 10 μL lysis buffer each according to manufacturer's instructions. After 60 minutes incubation, changes in cAMP concentrations are measured according to manufacturer's instructions using an Envision plate reader with laser excitation. All incubations were performed in duplicate. Data was analyzed using GraphPad Prism software using the 4-parameter logistic equation to measure MDL29,951 pEC50s in absence and presence of GPR17 antagonist/inverse agonist test compounds. Dose ratio (DR) were plotted against antagonist concentrations and Schild analysis provided estimated affinity pA2 of GPR17 antagonist/inverse agonist test compounds.
The activities of the Example compounds tested are depicted in the table below. The activity ranges A, B and C refer to pA2 values in the cAMP assay as follows: “A”: pA2 6.5≤x<7.5, “B”: pA2 7.5≤x<8.5, “C”: 8.5≤pA2.

GPR17, sequence (Q13304 29-367 limits assumed): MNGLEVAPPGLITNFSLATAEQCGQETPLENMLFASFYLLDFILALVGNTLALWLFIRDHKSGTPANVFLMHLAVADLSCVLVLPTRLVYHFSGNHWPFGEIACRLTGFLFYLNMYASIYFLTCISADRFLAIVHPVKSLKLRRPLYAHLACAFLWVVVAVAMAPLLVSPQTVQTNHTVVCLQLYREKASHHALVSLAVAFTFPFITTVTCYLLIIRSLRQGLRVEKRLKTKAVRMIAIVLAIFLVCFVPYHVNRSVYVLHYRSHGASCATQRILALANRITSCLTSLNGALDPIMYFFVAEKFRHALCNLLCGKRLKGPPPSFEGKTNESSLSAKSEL

Kb	Structure (SMILES)
3.16 to 31.6 nM	O=S(=O)(Nc1cc(F)c(Br)cc1F)c1cn(CC(F)CO)c2cc(Cl)ccc12 (stereo not shown) [Example I-7, N-(4-bromo-2,5-difluorophenyl)-6-chloro-1-(2-fluoro-3-hydroxypropyl)indole-3-sulfonamide]
3.16 to 31.6 nM	O=S(=O)(Nc1cc(F)c(Br)cc1F)c1cn(CCO)c2cc(Cl)ccc12 [Example I-10, N-(4-bromo-2,5-difluorophenyl)-6-chloro-1-(2-hydroxyethyl)indole-3-sulfonamide]
31.6 to 316 nM	O=S(=O)(Nc1cc(F)c(Br)cc1F)c1cn(CCCl)c2cc(Cl)ccc12 [Example I-13, N-(4-bromo-2,5-difluorophenyl)-6-chloro-1-(2-chloroethyl)indole-3-sulfonamide]
31.6 to 316 nM	O=S(=O)(Nc1cc(F)c(Br)cc1F)c1cn(CCCO)c2cc(Cl)ccc12 [Example I-14, N-(4-bromo-2,5-difluorophenyl)-6-chloro-1-(3-hydroxypropyl)indole-3-sulfonamide]
31.6 to 316 nM	CN(C)CCn1cc(S(=O)(=O)Nc2cc(F)c(Br)cc2F)c2ccc(Cl)cc21 [Example I-15, N-(4-bromo-2,5-difluorophenyl)-6-chloro-1-[2-(dimethylamino)ethyl]indole-3-sulfonamide]
3.16 to 31.6 nM	O=S(=O)(Nc1cc(F)c(Br)cc1F)c1cn(CCOCCO)c2cc(Cl)ccc12 [Example I-16, N-(4-bromo-2,5-difluorophenyl)-6-chloro-1-[2-(2-hydroxyethoxy)ethyl]indole-3-sulfonamide]
31.6 to 316 nM	CC(=O)Cn1cc(S(=O)(=O)Nc2cc(F)c(Br)cc2F)c2ccc(Cl)cc21 [Example I-17, N-(4-bromo-2,5-difluorophenyl)-6-chloro-1-(2-oxopropyl)indole-3-sulfonamide]
≤ 3.16 nM	CC(O)Cn1cc(S(=O)(=O)Nc2cc(F)c(Br)cc2F)c2ccc(Cl)cc21 (stereo not shown) [Example I-18, N-(4-bromo-2,5-difluorophenyl)-6-chloro-1-(2-hydroxypropyl)indole-3-sulfonamide]

Further lines, the compound ahead of its results:

Structure (SMILES)	Kb
Cn1cc(S(=O)(=O)Nc2cc(F)c(Br)cc2F)c2ccc(Cl)nc21 [Example I-3, N-(4-bromo-2,5-difluorophenyl)-6-chloro-1-methylpyrrolo[2,3-b]pyridine-3-sulfonamide]	3.16 to 31.6 nM
Cn1cc(S(=O)(=O)Nc2cc(F)c(OC(F)F)cc2F)c2ccc(Cl)nc21 [Example I-4, 6-chloro-N-[4-(difluoromethoxy)-2,5-difluorophenyl]-1-methylpyrrolo[2,3-b]pyridine-3-sulfonamide]	3.16 to 31.6 nM
O=S(=O)(Nc1cc(F)c(OC(F)F)cc1F)c1cn(CC(F)F)c2nc(Cl)ccc12 [Example I-5, 6-chloro-1-(2,2-difluoroethyl)-N-[4-(difluoromethoxy)-2,5-difluorophenyl]pyrrolo[2,3-b]pyridine-3-sulfonamide]	31.6 to 316 nM
O=S(=O)(Nc1cc(F)c(Br)cc1F)c1cn(CC(F)F)c2nc(Cl)ccc12 [Example I-6, N-(4-bromo-2,5-difluorophenyl)-6-chloro-1-(2,2-difluoroethyl)pyrrolo[2,3-b]pyridine-3-sulfonamide]	31.6 to 316 nM
O=S(=O)(Nc1cc(F)c(Br)cc1F)c1cn(CC(F)CO)c2nc(Cl)ccc12 (stereo not shown) [Example I-8, N-(4-bromo-2,5-difluorophenyl)-6-chloro-1-(2-fluoro-3-hydroxypropyl)pyrrolo[2,3-b]pyridine-3-sulfonamide]	31.6 to 316 nM
COc1nc(NS(=O)(=O)c2cn(CCO)c3cc(Cl)ccc23)ccc1Br [Example I-9, N-(5-bromo-6-methoxypyridin-2-yl)-6-chloro-1-(2-hydroxyethyl)indole-3-sulfonamide]	31.6 to 316 nM
O=C(O)Cn1cc(S(=O)(=O)Nc2cc(F)c(Br)cc2F)c2ccc(Cl)cc21 [Example I-11, 2-[3-[(4-bromo-2,5-difluorophenyl)sulfamoyl]-6-chloroindol-1-yl]acetic acid]	≤ 3.16 nM
Cn1cc(S(=O)(=O)Nc2cc(F)c(Br)cc2F)c2ccc(Cl)cc21 [Example I-12, N-(4-bromo-2,5-difluorophenyl)-6-chloro-1-methylindole-3-sulfonamide]	3.16 to 31.6 nM
